Measured values from patent publication US9603827B2, “Method for preventing and/or treating hairy wart disease” (Mitsubishi-Kagaku Foods Corporation, priority 2014, dated 2017).

How the values were obtained:
Format in all cases: in vivo
[1] = tested on: dairy cows afflicted with digital dermatitis; experiment: Pain at affected area by pressure gauge, with and without hoof trimming (Example 4); conditions: applied after hoof trimming; observed after 2, 4 and 6 days
Text: (§1) Allyl isothiocyanate (trade name: “Wasaouro Powder”, Mitsubishi-Kagaku Foods Corp.) was applied to the affected areas of dairy cows afflicted with digital dermatitis, and microbial scores and changes in pain at the lesions were observed after 2, 4 and 6 days.
(§2) Comparisons were made under the following conditions A to D in order to confirm differences in effects attributable to the presence or absence of hoof trimming.
(§3) A: Allyl isothiocyanate applied to affected area after hoof trimming
(§4) B: Allyl isothiocyanate applied to affected area without performing hoof trimming
(§5) C: Allyl isothiocyanate applied after hoof trimming and cleaning the affected area with Oxydol disinfectant
(§6) D: Affected area cleaned with Oxydol disinfectant after hoof trimming (without applying allyl isothiocyanate)
Changes in pain were evaluated based on the level of pressure at which pain was felt by tightly squeezing the affected area with a pressure gauge. Larger values indicate lower levels of pain.

Treponema [2] = experiment: 16S rRNA clone analysis of digital dermatitis lesion before and after treatment
Text: (§7) Samples were collected from two cows afflicted with digital dermatitis. First, a digital dermatitis lesion was collected from the affected area by biopsy prior to treatment. After collecting the lesion, a powdered composition containing allyl isothiocyanate (trade name: “Wasaouro Powder”, Mitsubishi-Kagaku Foods Corp.) was applied to the affected area. After confirming improvement of clinical symptoms seven days later, a sample was again collected by biopsy. The stage of digital dermatitis at the time of sampling was assessed macroscopically. In order to investigate the predominant microbial species in the lesion before and after treatment, DNA was extracted from four specimens of digital dermatitis lesion materials of the two cows before and after treatment, low cycle number PCR (25 cycles or less) was carried out using universal primers to 16S rRNA gene, and the amplified gene fragment was cloned in an Escherichia coli vector. 192 clones were randomly harvested for each specimen to determine the base sequence of the amplified 16S rRNA gene. Among these, a homology analysis was performed by a BLAST search using clones from which data was obtained for base sequences in excess of 1450 bp, followed by determination of microbial species.

Anaerovorax odorimutans = experiment: as above; conditions: Table 3 cow
Text: as §7

Psychrobacter = experiment: as above; conditions: Table 3 cow
Text: as §7

Acholeplasma vituli = experiment: as above; conditions: Table 3 cow
Text: as §7

Clostridiaceae = experiment: as above; conditions: Table 3 cow
Text: as §7

Eubacteriaceae = experiment: as above
Text: as §7

[3] = tested on: dairy cows afflicted with hairy hoof wart attack; experiment: Effect of patch on hairy hoof wart attack of dairy cows (Example 2); conditions: assessed one week later
Text: 3 g of a powdered composition of allyl isothiocyanate (trade name: “Wasaouro Powder”, Mitsubishi-Kagaku Foods Corp.) were placed on a piece of absorbent cotton and pressed against the affected area of dairy cows (5) afflicted with hairy hoof wart attack followed by wrapping with an elastic bandage to administer the allyl isothiocyanate to the affected area in the form of a patch and assessing the effect one week later. […] Hairy hoof wart attack is a hoof and leg disease having lesions that are more serious and cover a broader area in comparison with digital dermatitis, and when considering that an effective preventive and/or treatment method has currently yet to be found, this effect of allyl isothiocyanate can be said to be groundbreaking.

[4] = tested on: dairy cows afflicted with digital dermatitis; experiment: Effect of patch on digital dermatitis of dairy cows (Example 1); conditions: patch on affected area, assessed two days later
Text: 3 g of a powdered composition of allyl isothiocyanate (trade name: “Wasaouro Powder”, Mitsubishi-Kagaku Foods Corp.) were placed on a piece of absorbent cotton and pressed against the affected area of dairy cows afflicted with digital dermatitis followed by wrapping with an elastic bandage to administer the allyl isothiocyanate to the affected area in the form of a patch and assessing the effect two days later. In addition, the effect of respectively administering sodium alginate and slaked lime using the same method was also assessed two days later.

Treponema [5] = experiment: Microbial score of affected area with and without hoof trimming (Example 4); conditions: observed after 2, 4 and 6 days
Text: as §1, §2, §3, §4, §5, §6
Microbial scores of the affected areas were obtained by scoring the number of microorganisms from a stamped specimen of the heel bulb in the manner indicated below.
3: Treponema covered the entire field of view
2: Large number of Treponema confirmed in the field of view
1: Treponema only occasionally confirmed
0: Treponema unable to be confirmed

[6] = Table 2 cow, after treatment (n = 171), seven days
[7] = Table 2 cow, before treatment (n = 181)
[8] = Table 3 cow, after treatment (n = 178), seven days
[9] = Table 3 cow, before treatment (n = 180)
[10] = after treatment (n = 178), seven days
[11] = 3 g powder patch, five dairy cows

C=CCN=C=S [Allyl isothiocyanate, allyl isothiocyanate]
pain [1]: decrease | percentage of clones detected: Treponema (Treponema [2]; [6]): 7.0% | percentage of clones detected: Treponema (Treponema [2]; [7]): 79.6% | percentage of clones detected: Treponema (Treponema [2]; [8]): 0% | percentage of clones detected: Treponema (Treponema [2]; [9]): 37.8% | percentage of clones detected: Anaerovorax odorimutans (Anaerovorax odorimutans; [10]): 0% | percentage of clones detected: Anaerovorax odorimutans (Anaerovorax odorimutans; before treatment (n = 180)): 10.0% | percentage of clones detected: Psychrobacter (Psychrobacter; [10]): 0% | percentage of clones detected: Psychrobacter (Psychrobacter; before treatment (n = 180)): 2.2% | percentage of clones detected: Acholeplasma vituli (Acholeplasma vituli; [10]): 0% | percentage of clones detected: Acholeplasma vituli (Acholeplasma vituli; before treatment (n = 180)): 3.9% | percentage of clones detected: Clostridiaceae (Clostridiaceae; [10]): 5.6% | percentage of clones detected: Clostridiaceae (Clostridiaceae; before treatment (n = 180)): 26.7% | percentage of clones detected: Eubacteriaceae (Eubacteriaceae; [6]): 0.6% | percentage of clones detected: Eubacteriaceae (Eubacteriaceae; [7]): 5.5% | percentage of clones detected: Eubacteriaceae (Eubacteriaceae; [8]): 0.6% | percentage of clones detected: Eubacteriaceae (Eubacteriaceae; [9]): 10.6% | cows in which the affected area demonstrated improvement [3, 11]: one | cows in which the affected area healed [3, 11]: two | cows in which the affected area was unchanged [3, 11]: one | cows with effects categorized as improved or better ([3]; of the five dairy cows): four | Degree of effect: Effective (number of digits) [4]: 1 digits | Degree of effect: Ineffective (number of digits) [4]: 0 digits | Degree of effect: Slightly effective (number of digits) [4]: 0 digits | Degree of effect: Very effective (number of digits) [4]: 2 digits | percentage of digits for which the degree of the effect was effective or better [4]: 100% | number of microorganisms at the lesion (Treponema [5]; administered after hoof trimming): decrease | number of microorganisms at the lesion (Treponema [5]; applied after cleaning the affected area with Oxydol disinfectant): decrease further

[Ca+2].[OH-].[OH-] [Slaked lime, slaked lime, reference compound]
Degree of effect: Effective (number of digits) [4]: 2 digits | Degree of effect: Ineffective (number of digits) [4]: 0 digits | Degree of effect: Slightly effective (number of digits) [4]: 5 digits | Degree of effect: Very effective (number of digits) [4]: 0 digits | percentage of digits for which the degree of the effect was effective or better [4]: 29%
